Source: ChEMBL document CHEMBL1159011, “Four new bioactive polyhydroxylated sterols from the black coral Antipathes subpinnata” (J Nat Prod, 1992)
≈ marks a conversion by molar mass, not a printed value.

Test: Toxicity against Artemia salina after 24 hrs
Assay type: organism-based
Conditions: in vivo

Going from `CC(C)C/C=C/[C@@H](C)[C@H]1CC[C@H]2[C@@H]3[C@@H](O)C=C4C[C@@H](O)CC[C@]4(CO)[C@H]3CC[C@]12C` to `CC(C)CCC[C@@H](C)[C@H]1CC[C@H]2[C@@H]3[C@@H](O)C=C4C[C@@H](O)CC[C@]4(CO)[C@H]3CC[C@]12C`, the LC50 at 24 h rises from 30.7 µg/mL (≈ 73.7 µM) to 55.6 µg/mL (≈ 133 µM) (1.8-fold).

First: CC(C)CCC[C@@H](C)[C@H]1CC[C@H]2[C@@H]3[C@@H](O)C=C4C[C@@H](O)CC[C@]4(CO)[C@@]3(O)CC[C@]12C
Second: CC(C)CCC[C@](C)(O)[C@H]1C(=O)C[C@H]2[C@@H]3CCC4=CC(=O)C=C[C@]4(C)[C@H]3CC[C@@]21CO
The LC50 at 24 h of the first is 19-fold lower: 7.2 µg/mL (≈ 16.6 µM) for the first, 139 µg/mL (≈ 325 µM) for the second.
